Literature values in paper PMC8513935.

Key:
[1] = log P octanol/water from commercial databases, averaged (the ESI); conditions: Octanol (wet), 25 C
[2] = experimental, compiled by the authors from the literature (the ESI cites the sources)
[3] = derived by the authors as gas->solvent minus gas->water (a hypothetical dry solvent; the ESI), not a two-phase measurement

For CCCl, the log K of transfer, water to solvent [1] is given as 1.43 log10 K, the log K of transfer, gas to solvent ([2]; 2-Methylpropan-1-ol, 25 C) is given as 1.78 log10 K and the log K of transfer, gas to solvent ([2]; 2-Methylpropan-2-ol, 25 C) is given as 1.79 log10 K. The log K of transfer, gas to solvent ([2]; 3-Methylbutan-1-ol, 25 C) was 1.78 log10 K, the log K of transfer, gas to solvent ([2]; Butan-1-ol, 25 C) was 1.83 log10 K and the log K of transfer, gas to solvent ([2]; Butan-2-ol, 25 C) was 1.77 log10 K. For the same compound, the log K of transfer, gas to solvent ([2]; Chlorobenzene, 25 C) was 2.17 log10 K, the log K of transfer, gas to solvent ([2]; Hexadecane, 25 C) was 1.68 log10 K and the log K of transfer, gas to solvent ([2]; Hexane, 25 C) was 1.91 log10 K. For the same compound, the log K of transfer, gas to solvent ([2]; Methanol, 25 C) was 1.93 log10 K, the log K of transfer, gas to solvent ([2]; Pentan-1-ol, 25 C) was 1.81 log10 K and the log K of transfer, gas to solvent ([2]; Propan-1-ol, 25 C) was 1.86 log10 K. For the same compound, the log K of transfer, gas to solvent ([2]; Propan-2-ol, 25 C) was 1.81 log10 K, the log K of transfer, gas to solvent ([2]; Water, 25 C) was 0.46 log10 K and the log K of transfer, water to solvent ([3]; 2-Methylpropan-1-ol, 25 C) was 1.32 log10 K. For the same compound, the log K of transfer, water to solvent ([3]; 2-Methylpropan-2-ol, 25 C) was 1.33 log10 K, the log K of transfer, water to solvent ([3]; 3-Methylbutan-1-ol, 25 C) was 1.32 log10 K and the log K of transfer, water to solvent ([3]; Butan-1-ol, 25 C) was 1.37 log10 K. For the same compound, the log K of transfer, water to solvent ([3]; Butan-2-ol, 25 C) was 1.31 log10 K, the log K of transfer, water to solvent ([3]; Chlorobenzene, 25 C) was 1.71 log10 K and the log K of transfer, water to solvent ([3]; Hexadecane, 25 C) was 1.22 log10 K. For the same compound, the log K of transfer, water to solvent ([3]; Hexane, 25 C) was 1.45 log10 K, the log K of transfer, water to solvent ([3]; Methanol, 25 C) was 1.47 log10 K and the log K of transfer, water to solvent ([3]; Pentan-1-ol, 25 C) was 1.35 log10 K. The log K of transfer, water to solvent ([3]; Propan-1-ol, 25 C) was 1.4 log10 K and the log K of transfer, water to solvent ([3]; Propan-2-ol, 25 C) was 1.35 log10 K.

In the case of CC(C)(C)Cl, the log K of transfer, water to solvent [1] is listed as 2.58 log10 K, the log K of transfer, gas to solvent ([2]; 1,2-Dichloroethane, 25 C) is listed as 2.62 log10 K and the log K of transfer, gas to solvent ([2]; 2-Methylpropan-2-ol, 25 C) is listed as 2.16 log10 K. The log K of transfer, gas to solvent ([2]; Butan-1-ol, 25 C) was 2.17 log10 K, the log K of transfer, gas to solvent ([2]; CCl4, 25 C) was 2.68 log10 K and the log K of transfer, gas to solvent ([2]; Chlorobenzene, 25 C) was 2.61 log10 K. The log K of transfer, gas to solvent ([2]; Cyclohexanone, 25 C) was 2.66 log10 K, the log K of transfer, gas to solvent ([2]; Diethyl Ether, 25 C) was 2.48 log10 K and the log K of transfer, gas to solvent ([2]; Hexadecane, 25 C) was 2.27 log10 K. For the same compound, the log K of transfer, gas to solvent ([2]; Hexane, 25 C) was 2.51 log10 K, the log K of transfer, gas to solvent ([2]; Propan-2-ol, 25 C) was 2.05 log10 K and the log K of transfer, gas to solvent ([2]; Tetrahydrofuran, 25 C) was 2.5 log10 K. The log K of transfer, gas to solvent ([2]; Water, 25 C) was -0.8 log10 K, the log K of transfer, water to solvent ([3]; 1,2-Dichloroethane, 25 C) was 3.42 log10 K and the log K of transfer, water to solvent ([3]; 2-Methylpropan-2-ol, 25 C) was 2.96 log10 K. For the same compound, the log K of transfer, water to solvent ([3]; Butan-1-ol, 25 C) was 2.97 log10 K, the log K of transfer, water to solvent ([3]; CCl4, 25 C) was 3.48 log10 K and the log K of transfer, water to solvent ([3]; Chlorobenzene, 25 C) was 3.41 log10 K. For the same compound, the log K of transfer, water to solvent ([3]; Cyclohexanone, 25 C) was 3.46 log10 K, the log K of transfer, water to solvent ([3]; Diethyl Ether, 25 C) was 3.28 log10 K and the log K of transfer, water to solvent ([3]; Hexadecane, 25 C) was 3.07 log10 K. The log K of transfer, water to solvent ([3]; Hexane, 25 C) was 3.31 log10 K, the log K of transfer, water to solvent ([3]; Propan-2-ol, 25 C) was 2.85 log10 K and the log K of transfer, water to solvent ([3]; Tetrahydrofuran, 25 C) was 3.3 log10 K.

In the case of c1ccc2c(c1)ccc1ccccc12, the log K of transfer, water to solvent [1] is listed as 4.49 log10 K, the log K of transfer, gas to solvent ([2]; 2-Methylpropan-1-ol, 25 C) is listed as 7.01 log10 K and the log K of transfer, gas to solvent ([2]; 2-Methylpropan-2-ol, 25 C) is listed as 7 log10 K. The log K of transfer, gas to solvent ([2]; 3-Methylbutan-1-ol, 25 C) was 7.13 log10 K, the log K of transfer, gas to solvent ([2]; Acetonitrile, 25 C) was 7.73 log10 K and the log K of transfer, gas to solvent ([2]; Butan-1-ol, 25 C) was 7.25 log10 K. The log K of transfer, gas to solvent ([2]; Butan-2-ol, 25 C) was 7.07 log10 K, the log K of transfer, gas to solvent ([2]; Butanone, 25 C) was 8.27 log10 K and the log K of transfer, gas to solvent ([2]; Butyronitrile, 25 C) was 8.19 log10 K. For the same compound, the log K of transfer, gas to solvent ([2]; CCl4, 25 C) was 8.05 log10 K, the log K of transfer, gas to solvent ([2]; Chloroform, 25 C) was 7.86 log10 K and the log K of transfer, gas to solvent ([2]; Cyclohexane, 25 C) was 7.41 log10 K. For the same compound, the log K of transfer, gas to solvent ([2]; Cyclohexanone, 25 C) was 8.33 log10 K, the log K of transfer, gas to solvent ([2]; Di-n-butyl ether, 25 C) was 7.72 log10 K and the log K of transfer, gas to solvent ([2]; Ethanol, 25 C) was 7.36 log10 K. The log K of transfer, gas to solvent ([2]; Heptan-1-ol, 25 C) was 7.41 log10 K, the log K of transfer, gas to solvent ([2]; Hexadecane, 25 C) was 7.63 log10 K and the log K of transfer, gas to solvent ([2]; Hexane, 25 C) was 7.35 log10 K. The log K of transfer, gas to solvent ([2]; Methanol, 25 C) was 7.24 log10 K, the log K of transfer, gas to solvent ([2]; Octan-1-ol, 25 C) was 7.52 log10 K and the log K of transfer, gas to solvent ([2]; Pentan-1-ol, 25 C) was 7.33 log10 K. For the same compound, the log K of transfer, gas to solvent ([2]; Propan-1-ol, 25 C) was 7.3 log10 K, the log K of transfer, gas to solvent ([2]; Propan-2-ol, 25 C) was 7.07 log10 K and the log K of transfer, gas to solvent ([2]; Propanone, 25 C) was 8.26 log10 K. The log K of transfer, gas to solvent ([2]; Propionitrile, 25 C) was 8.14 log10 K, the log K of transfer, gas to solvent ([2]; Tetrahydrofuran, 25 C) was 8.42 log10 K and the log K of transfer, gas to solvent ([2]; Water, 25 C) was 2.8 log10 K. For the same compound, the log K of transfer, water to solvent ([3]; 2-Methylpropan-1-ol, 25 C) was 4.21 log10 K, the log K of transfer, water to solvent ([3]; 2-Methylpropan-2-ol, 25 C) was 4.2 log10 K and the log K of transfer, water to solvent ([3]; 3-Methylbutan-1-ol, 25 C) was 4.33 log10 K. The log K of transfer, water to solvent ([3]; Acetone, 25 C) was 5.46 log10 K, the log K of transfer, water to solvent ([3]; Acetonitrile, 25 C) was 4.93 log10 K and the log K of transfer, water to solvent ([3]; Butan-1-ol, 25 C) was 4.45 log10 K. For the same compound, the log K of transfer, water to solvent ([3]; Butan-2-ol, 25 C) was 4.27 log10 K, the log K of transfer, water to solvent ([3]; Butanone, 25 C) was 5.47 log10 K and the log K of transfer, water to solvent ([3]; Butyronitrile, 25 C) was 5.39 log10 K. For the same compound, the log K of transfer, water to solvent ([3]; CCl4, 25 C) was 5.25 log10 K, the log K of transfer, water to solvent ([3]; Chloroform, 25 C) was 5.06 log10 K and the log K of transfer, water to solvent ([3]; Cyclohexane, 25 C) was 4.61 log10 K. The log K of transfer, water to solvent ([3]; Cyclohexanone, 25 C) was 5.53 log10 K, the log K of transfer, water to solvent ([3]; Di-n-butyl ether, 25 C) was 4.92 log10 K and the log K of transfer, water to solvent ([3]; Ethanol, 25 C) was 4.56 log10 K. The log K of transfer, water to solvent ([3]; Heptan-1-ol, 25 C) was 4.61 log10 K, the log K of transfer, water to solvent ([3]; Hexadecane, 25 C) was 4.83 log10 K and the log K of transfer, water to solvent ([3]; Hexane, 25 C) was 4.55 log10 K. The log K of transfer, water to solvent ([3]; Methanol, 25 C) was 4.44 log10 K, the log K of transfer, water to solvent ([3]; Octan-1-ol(dry), 25 C) was 4.72 log10 K and the log K of transfer, water to solvent ([3]; Pentan-1-ol, 25 C) was 4.53 log10 K. For the same compound, the log K of transfer, water to solvent ([3]; Propan-1-ol, 25 C) was 4.5 log10 K, the log K of transfer, water to solvent ([3]; Propan-2-ol, 25 C) was 4.27 log10 K and the log K of transfer, water to solvent ([3]; Propionitrile, 25 C) was 5.34 log10 K. The log K of transfer, water to solvent ([3]; Tetrahydrofuran, 25 C) was 5.62 log10 K.
